# Data from patent US8815881B2 (Hoffmann-La Roche Inc., priority 2010, dated 2014).
# Molecular target: endogenous cellular BACE2 in the Ins1e rat cell line (Rattus norvegicus (Rat), UniProt Q6IE75)
# Experiment: Assay for BACE inhibition by measuring cellular TMEM27 cleavage (ELISA of shed hTMEM27 from INS-TMEM27 cells)
# Format: cell-based
# Settings: assay a): cellular TMEM27 cleavage, INS-TMEM27 cells (superscript a)
# In short: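 Shed human TMEM27 is quantified by ELISA in medium of TetOn INS1e cells after 46 h at 37 °C. Compound is dosed across a concentration range, followed 2 h later by doxycycline induction at 500 ng/ml. Each concentration's readout is curve-fitted to give the EC50.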
# Sequence of endogenous cellular BACE2 in the Ins1e rat cell line (Q6IE75 63-514): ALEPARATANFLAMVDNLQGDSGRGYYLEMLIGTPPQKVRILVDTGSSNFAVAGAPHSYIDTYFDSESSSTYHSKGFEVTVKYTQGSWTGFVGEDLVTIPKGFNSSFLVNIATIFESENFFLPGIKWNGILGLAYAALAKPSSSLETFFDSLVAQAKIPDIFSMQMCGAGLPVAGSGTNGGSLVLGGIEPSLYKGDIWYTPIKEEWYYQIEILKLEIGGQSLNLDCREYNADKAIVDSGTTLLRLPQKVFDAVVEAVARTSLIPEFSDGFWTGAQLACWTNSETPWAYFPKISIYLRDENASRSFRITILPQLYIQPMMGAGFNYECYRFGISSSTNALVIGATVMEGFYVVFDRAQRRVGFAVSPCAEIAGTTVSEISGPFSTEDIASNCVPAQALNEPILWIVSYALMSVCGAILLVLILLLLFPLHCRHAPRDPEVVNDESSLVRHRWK
row,IC50 [nM],Compound
1,3,"CN1C(=O)C(C)(C)[C@@](C)(c2cc(NC3CS(=O)(=O)c4ccccc43)ccc2F)N=C1N (stereo partly drawn) [Example 144, (S)-2-Amino-6-[5-(1,1-dioxo-2,3-dihydro-1H-1-benzo[b]thiophen-3-ylamino)-2-fluoro-phenyl]-3,5,5,6-tetramethyl-5,6-dihydro-3H-pyrimidin-4-one]"
2,14,"CN1C(=O)C(C)(C)[C@@](C)(c2cc(Nc3cc(F)ccc3F)ccc2F)N=C1N [Example 145, (S)-2-Amino-6-[5-(2,5-difluoro-phenylamino)-2-fluoro-phenyl]-3,5,5,6-tetramethyl-5,6-dihydro-3H-pyrimidin-4-one]"
3,257,"Cc1cc(C)c(Nc2ccc(F)c([C@@]3(C)N=C(N)N(C)C(=O)C3(C)C)c2)cc1C [Example 146, (S)-2-Amino-6-(2-fluoro-5-(2,4,5-trimethylphenylamino)phenyl)-3,5,5,6-tetramethyl-5,6-dihydropyrimidin-4(3H)-one]"
4,269,"CN1C(=O)C(C)(C)[C@@](C)(c2cc(NC(=O)C3(O)CCC3)ccc2F)N=C1N [Example 147, (S)—N-(3-(2-amino-1,4,5,5-tetramethyl-6-oxo-1,4,5,6-tetrahydropyrimidin-4-yl)-4-fluorophenyl)-1-hydroxycyclobutanecarboxamide]"
5,497,"CN1C(=O)C(C)(C)[C@@](C)(c2cc(NC(=O)C(O)(C(F)(F)F)C(F)(F)F)ccc2F)N=C1N [Example 148, (S)—N-(3-(2-amino-1,4,5,5-tetramethyl-6-oxo-1,4,5,6-tetrahydropyrimidin-4-yl)-4-fluorophenyl)-3,3,3-trifluoro-2-hydroxy-2-(trifluoromethyl)propanamide]"
6,81,"Cc1cc(Nc2ccc(F)c([C@@]3(C)N=C(N)N(C)C(=O)C3(C)C)c2)ccc1C#N [Example 149, (S)-4-(3-(2-Amino-1,4,5,5-tetramethyl-6-oxo-1,4,5,6-tetrahydropyrimidin-4-yl)-4-fluorophenylamino)-2-methylbenzonitrile]"
7,2,"CN1C(=O)C(C)(C)[C@@](C)(c2cc(Nc3ccc(C#N)cc3F)ccc2F)N=C1N [Example 152, (S)-4-(3-(2-Amino-1,4,5,5-tetramethyl-6-oxo-1,4,5,6-tetrahydropyrimidin-4-yl)-4-fluorophenylamino)-3-fluorobenzonitrile]"
8,123,"C[C@@H]1CC(Nc2ccc(F)c([C@@]3(C)N=C(N)N(C)C(=O)C3(C)C)c2)C[C@H](C)O1 (stereo partly drawn) [Example 155, (6S)-2-Amino-6-(5-((2R,6S)-2,6-dimethyltetrahydro-2H-pyran-4-ylamino)-2-fluorophenyl)-3,5,5,6-tetramethyl-5,6-dihydropyrimidin-4(3H)-one]"
9,1210,"CN1C(=O)C(C)(C)[C@@](C)(c2cc(Nc3cccc4c3OC(C)(C)C4)ccc2F)N=C1N [Example 156, (S)-2-Amino-6-(5-(2,2-dimethyl-2,3-dihydrobenzofuran-7-ylamino)-2-fluorophenyl)-3,5,5,6-tetramethyl-5,6-dihydropyrimidin-4(3H)-one]"
10,654,"CN1C(=O)C(C)(C)[C@@](C)(c2cc(Nc3cccc4c3OCC4)ccc2F)N=C1N [Example 157, (S)-2-Amino-6-(5-(2,3-dihydrobenzofuran-7-ylamino)-2-fluorophenyl)-3,5,5,6-tetramethyl-5,6-dihydropyrimidin-4(3H)-one]"
11,298,"CN1C(=O)C(C)(C)[C@@](C)(c2cc(NC3CC(C)(C)CC3O)ccc2F)N=C1N (stereo partly drawn) [Example 158, (S)-2-Amino-6-[2-fluoro-5-(2-hydroxy-4,4-dimethyl-cyclopentylamino)-phenyl]-3,5,5,6-tetramethyl-5,6-dihydro-3H-pyrimidin-4-one]"
12,24,"Cc1nc(C(C)Nc2ccc(F)c([C@@]3(C)N=C(N)N(C)C(=O)C3(C)C)c2)c(C(F)(F)F)o1 (stereo partly drawn) [Example 159, (S)-2-Amino-6-{2-fluoro-5-[1-(2-methyl-5-trifluoromethyl-oxazol-4-yl)-ethylamino]-phenyl}-3,5,5,6-tetramethyl-5,6-dihydro-3H-pyrimidin-4-one]"
13,6,"CN1C(=O)C(C)(C)[C@@](C)(c2cc(NCc3nn(C(F)F)cc3Cl)ccc2F)N=C1N [Example 160, (S)-2-Amino-6-{5-[(4-chloro-1-difluoromethyl-1H-pyrazol-3-ylmethyl)-amino]-2-fluoro-phenyl}-3,5,5,6-tetramethyl-5,6-dihydro-3H-pyrimidin-4-one]"

# Molecular target: BACE2 enzyme ectodomain (Homo sapiens (Human), UniProt Q9Y5Z0)
# Experiment: Fluorescent-peptide cleavage assay for BACE2 inhibition
# Format: biochemical
# Settings: assay b): fluorescent-peptide cleavage, pH 4.5 (superscript b)
# Protocol: b) Fluorescent-Peptide Cleavage Assay for BACE2 Inhibition
# BACE2 enzyme ectodomain (derived from plasmid “pET17b-T7-hu proBACE2”) was prepared as described in Ostermann et al., “Crystal Structure of Human BACE2 in Complex with a Hydroxyethylamine Transition-state Inhibitor”, Journal of Molecular Biology 2006, 355, 249-261. The pro-enzyme was stored at 4° C. at a concentration of 70 μg/ml.
# A fluorescent peptide with the amino acid sequence WS EVNLD AEFRC-MR121 was synthesised and a stock solution of 1.5 mM in DMSO prepared and stored at −20° C. MR121 is a fluorophore with an excitation wavelength of 630 nm and emission wavelength of 695 nm. The MR121 fluorescence is quenched by the N-terminal tryptophan until the peptide is cleaved by BACE2.
# Assays were all made in a Corning 384-well black polystyrene non-binding surface microtitre plate with clear flat bottom and using a Plate:Vision (Perkin Elmer) fluorescence reader. To perform the assay an 80 nM solution of BACE2 was prepared in assay buffer (assay buffer is 100 mM Na-acetate; 20 mM EDTA; 0.05% BSA; pH 4.5) and incubated at room temperature for 1 hour to activate the enzyme. 39 μl of the activated BACE2 was placed in each assay well, followed by 1 μl compound to be tested at an appropriate concentration in 100% DMSO. The plate was then mixed and incubated for 10 minutes at room temperature. To start the assay, 10 μl of a 1.5 μM solution fluorescent peptide in assay buffer was added and the fluorescence intensity in the assay mixture measured at 695 nm with an excitation wavelength of 630 nm for 30 minutes.
# The assay readout is the rate of change of fluorescence intensity giving a relative measure of BACE2 activity. Small values correspond to high inhibition and larger values to low inhibition. To determine IC50 values (i.e. the concentration inhibiting the enzyme activity by 50%) of the compound for BACE2, typically, 15 assays were made with a range of concentrations chosen empirically to give low, high and intermediate inhibition of the protease. IC50 values were determined using these assay values generated for a range of inhibitor concentrations and the curve fitting software XLfit (IDBS) using the Sigmoidal Dose-Response Model.
# Sequence of BACE2 enzyme ectodomain (Q9Y5Z0 63-473): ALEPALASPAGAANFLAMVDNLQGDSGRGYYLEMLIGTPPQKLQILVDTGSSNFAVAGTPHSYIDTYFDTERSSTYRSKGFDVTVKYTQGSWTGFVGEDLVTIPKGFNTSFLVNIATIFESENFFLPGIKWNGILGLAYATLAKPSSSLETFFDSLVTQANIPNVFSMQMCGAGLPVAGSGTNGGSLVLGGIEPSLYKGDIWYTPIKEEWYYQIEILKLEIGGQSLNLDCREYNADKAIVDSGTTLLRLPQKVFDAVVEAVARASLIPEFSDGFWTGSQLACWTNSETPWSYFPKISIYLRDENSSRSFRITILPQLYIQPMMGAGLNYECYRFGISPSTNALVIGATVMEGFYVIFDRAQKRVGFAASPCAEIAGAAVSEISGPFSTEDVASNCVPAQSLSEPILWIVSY
row,IC50 [nM],Compound
1,21,"COc1ccc(Cl)cc1Nc1ccc(F)c([C@@]2(C)N=C(N)N(C)C(=O)C2(C)C)c1 [Example 150, (S)-2-Amino-6-(5-(5-chloro-2-methoxyphenylamino)-2-fluorophenyl)-3,5,5,6-tetramethyl-5,6-dihydropyrimidin-4(3H)-one]"
2,100,"CC(C)C(=O)Nc1ccc(F)c([C@@]2(C)N=C(N)N(C)C(=O)C2(C)C)c1 [Example 151, N-[3-((S)-2-Amino-1,4,5,5-tetramethyl-6-oxo-1,4,5,6-tetrahydro-pyrimidin-4-yl)-4-fluoro-phenyl]-isobutyramide]"
3,130,"CN1C(=O)C(C)(C)[C@@](C)(c2cc(Nc3ccc(C#N)cc3)ccc2F)N=C1N [Example 153, (S)-4-(3-(2-Amino-1,4,5,5-tetramethyl-6-oxo-1,4,5,6-tetrahydropyrimidin-4-yl)-4-fluorophenylamino)benzonitrile]"
4,35,"COc1cc(Cl)c(C)cc1Nc1ccc(F)c([C@@]2(C)N=C(N)N(C)C(=O)C2(C)C)c1 [Example 154, (S)-2-Amino-6-(5-(4-chloro-2-methoxy-5-methylphenylamino)-2-fluorophenyl)-3,5,5,6-tetramethyl-5,6-dihydropyrimidin-4(3H)-one]"
5,13,"CN1C(=O)C(C)(C)[C@@](C)(c2cc(Nc3ccc(C#N)cc3OC(F)(F)F)ccc2F)N=C1N [Example 161, (S)-4-(3-(2-Amino-1,4,5,5-tetramethyl-6-oxo-1,4,5,6-tetrahydropyrimidin-4-yl)-4-fluorophenylamino)-3-(trifluoromethoxy)benzonitrile]"
6,120,"CN1C(=O)C(C)(C)[C@@](C)(c2cc(NC3CCCC3C#N)ccc2F)N=C1N (stereo partly drawn) [Example 162, 2-[3-((S)-2-Amino-1,4,5,5-tetramethyl-6-oxo-1,4,5,6-tetrahydro-pyrimidin-4-yl)-4-fluoro-phenylamino]-cyclopentanecarbonitrile]"
7,62,"CN1C(=O)C(C)(C)[C@@](C)(c2cc(Nc3ccc(C#N)cc3C(F)(F)F)ccc2F)N=C1N [Example 163, (S)-4-(3-(2-Amino-1,4,5,5-tetramethyl-6-oxo-1,4,5,6-tetrahydropyrimidin-4-yl)-4-fluorophenylamino)-3-(trifluoromethyl)benzonitrile]"
8,1090,"CN1C(=O)C(C)(C)[C@@](C)(c2cc(Nc3ccc(S(C)(=O)=O)cc3)ccc2F)N=C1N [Example 164, (S)-2-Amino-6-(2-fluoro-5-(4-(methylsulfonyl)phenylamino)phenyl)-3,5,5,6-tetramethyl-5,6-dihydropyrimidin-4(3H)-one]"
9,39,"CN1C(=O)C(C)(C)[C@@](C)(c2cc(Nc3cc(C#N)ccc3F)ccc2F)N=C1N [Example 165, (S)-3-(3-(2-Amino-1,4,5,5-tetramethyl-6-oxo-1,4,5,6-tetrahydropyrimidin-4-yl)-4-fluorophenylamino)-4-fluorobenzonitrile]"
10,80,"CN1C(=O)C(C)(C)[C@@](C)(c2cc(Nc3cc(F)c(C#N)cc3F)ccc2F)N=C1N [Example 166, (S)-4-(3-(2-Amino-1,4,5,5-tetramethyl-6-oxo-1,4,5,6-tetrahydropyrimidin-4-yl)-4-fluorophenylamino)-2,5-difluorobenzonitrile]"
11,73,"CN1C(=O)C(C)(C)[C@@](C)(c2cc(Nc3cccc(C#N)c3)ccc2F)N=C1N [Example 167, 3-[3-((S)-2-Amino-1,4,5,5-tetramethyl-6-oxo-1,4,5,6-tetrahydro-pyrimidin-4-yl)-4-fluoro-phenylamino]-benzonitrile]"
12,14,"CN1C(=O)C(C)(C)[C@@](C)(c2cc(Nc3ccc(C#N)cc3Cl)ccc2F)N=C1N [Example 168, 4-[3-((S)-2-Amino-1,4,5,5-tetramethyl-6-oxo-1,4,5,6-tetrahydro-pyrimidin-4-yl)-4-fluoro-phenylamino]-3-chloro-benzonitrile]"
